Measurements taken from PMC4264242, “Androgen Receptor Antagonists and Anti-Prostate Cancer Activities of Some Newly Synthesized Substituted Fused Pyrazolo-, Triazolo- and Thiazolo-Pyrimidine Derivatives” (International Journal of Molecular Sciences, 2014).
“Also recorded” adds a separate entry of the source.

Experiments:
[1] = system: castrated immature rats; assay: In vivo anti-androgenic activity in castrated immature rats treated with testosterone propionate; set-up: species or system rat; settings: for % (Inhibition), in vivo anti-androgen activity: inhibition of TP effect (TP 0.5 mg/kg s.c. once daily for 5 days), tested compound 10-30 mg/kg p.o.; for ED50: Rattus norvegicus, read-out: ED50, in vivo anti-androgen activity
From the text: […] male Wistar rats were obtained from the Animal House Colony, Research Institute of Ophthalmology, Giza, Egypt. Prepubertal male rats aged 3 weeks were castrated using the scrotal route under ether anesthesia.

[2] = target: T1, mutant AR in LNCaP cells (Homo sapiens, UniProt P10275, T878A); assay: Anti-prostate cancer screening, anti-androgenic bioassay (AR transactivation) in LNCaP cells; type: cell-based; settings: 1 nM DHT, 24 h
T1 construct: endogenous in cells; host or cells: LNCaP cells (only reporter plasmids transfected)
T1 sequence (P10275 1-920 T878A): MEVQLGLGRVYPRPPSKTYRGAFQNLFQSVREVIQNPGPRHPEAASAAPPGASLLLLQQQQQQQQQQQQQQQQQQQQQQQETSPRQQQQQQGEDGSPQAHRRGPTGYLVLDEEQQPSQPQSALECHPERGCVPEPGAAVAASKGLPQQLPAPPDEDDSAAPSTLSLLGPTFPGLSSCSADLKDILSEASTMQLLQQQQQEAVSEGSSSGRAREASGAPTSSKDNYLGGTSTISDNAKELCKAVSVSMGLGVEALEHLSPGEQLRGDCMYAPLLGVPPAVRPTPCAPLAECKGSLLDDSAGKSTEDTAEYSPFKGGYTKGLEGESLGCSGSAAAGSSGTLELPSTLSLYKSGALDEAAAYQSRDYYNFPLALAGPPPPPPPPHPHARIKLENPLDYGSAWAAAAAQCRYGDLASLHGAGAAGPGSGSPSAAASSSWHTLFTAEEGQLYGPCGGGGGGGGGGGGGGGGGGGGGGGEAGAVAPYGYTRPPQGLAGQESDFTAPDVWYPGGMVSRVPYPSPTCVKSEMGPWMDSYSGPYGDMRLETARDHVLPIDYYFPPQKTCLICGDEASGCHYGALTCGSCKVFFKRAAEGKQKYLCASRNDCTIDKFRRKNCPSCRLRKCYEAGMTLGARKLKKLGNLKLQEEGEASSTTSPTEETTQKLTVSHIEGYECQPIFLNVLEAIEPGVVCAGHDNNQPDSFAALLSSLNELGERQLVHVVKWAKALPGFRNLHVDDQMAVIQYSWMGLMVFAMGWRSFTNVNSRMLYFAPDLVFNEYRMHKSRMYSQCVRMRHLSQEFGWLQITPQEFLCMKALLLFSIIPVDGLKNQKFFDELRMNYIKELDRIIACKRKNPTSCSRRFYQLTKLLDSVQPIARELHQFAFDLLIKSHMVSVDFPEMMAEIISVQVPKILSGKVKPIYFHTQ
Procedure: Human prostate cancer LNCaP and PC-3 cells were maintained in RPMI medium and Dulbecco’s minimum essential medium (DMEM), respectively. Both media were supplemented with penicillin (25 units/mL), streptomycin ([…]), and 10% fetal calf serum. For the androgen receptor transactivation assay, an androgen-dependent reporter gene transcription test was employed as the primary screening for potential anti-androgen identification. This assay was first performed in LNCaP cells, which express a clinically relevant mutant AR. […] Wild type AR transactivation assay was performed in PC-3 host cells, which lack an endogenous, functional AR. The method and conditions of cell and gene transfection have been described previously. In brief, cells were plated in 24-well tissue culture dishes for 24 (PC-3 cells) or 48 (LNCaP cells) h prior to transfection. Subsequently, LNCaP cells were transfected with a reporter gene, MMTV-luciferase, which contains a MMTV-long terminal repeat (LTR) promoter and an androgen receptor binding element, and Renilla Luciferase Control Reporter Vectors 40 (PRL-SV40), which served as an internal control for transfection efficiency. PC-3 cells were transfected with a wild type AR expression plasmid, plasmide gene-5 androgen recptor (pSG5AR), in addition to the above-mentioned MMTV-luciferase reporter gene and PRL-SV40 internal control. SuperFect (Qiagen, Chatsworth, CA, USA) was employed as the transfection reagent following the manufacturer’s recommendations. At the end of a 5-h transfection, the medium was changed to DMEM or RPMI supplemented with 10% charcoal dextran-stripped, i.e., androgen-depleted, serum. After 24 h, the cells were treated with 1 nM of DHT and/or test compounds at the designated concentrations.
After 24 h the cells were harvested for luciferase activity assay using the Dual Luciferase Assay System (Promega, Madison, WI, USA.). The derived data was expressed as relative luciferase activity normalized to the internal luciferase control.

[3] = Acute toxicity (LD50) in rats; settings: rat, in vivo, rats injected with increasing doses
Procedure: The LD50 was determined by using rats injected with different increasing doses of the synthesized compounds. The dose that killed 50% of the animals was calculated according to Austen and Brocklehurst (Table 4).

[4] = other: injected (kind of injection not stated)

NNc1nc2c(ccc3ccccc32)s1 [Compound 1, 1-(naphtho[1,2-d]thiazol-2-yl)hydrazine]
ED50, in vivo anti-androgen activity ([1]; castrated immature rats, TP 0.5 mg/kg s.c., compound p.o.): Inactive | % (Inhibition), in vivo anti-androgen activity [1]: Inactive | % (Inhibition), in vivo anti-androgen activity ([1]; listed as compound 1): devoid from any activities | IC50 LNCaP, anti-prostate cancer activity [2]: devoid from any activities; also recorded: Inactive | LD50 ([3]; other: injected): 1160 mg/kg

N#Cc1cnn(-c2nc3c(ccc4ccccc43)s2)c1N [Compound 2, 2-[3-Amino-4-cyanopyrazol-2-yl]naphthalino[1,2-d]thiazole]
ED50 [1]: 0.049 mg/kg | % (Inhibition), in vivo anti-androgen activity [1]: 95.49% | IC50 [2]: 51.5 nM | LD50 ([3]; other: injected): 163 mg/kg

Nc1ncnc2c1cnn2-c1nc2c(ccc3ccccc32)s1 [Compound 3]
ED50 [1]: 0.063 mg/kg | % (Inhibition), in vivo anti-androgen activity [1]: 91% | IC50 [2]: 58.6 nM | LD50 [3, 4]: 175 mg/kg

Nc1n[nH]c2c1cnn2-c1nc2c(ccc3ccccc32)s1 [Compound 4]
ED50 [1]: 0.051 mg/kg | % (Inhibition), in vivo anti-androgen activity [1]: 93.98% | IC50 [2]: 56.6 nM | LD50 [3, 4]: 266 mg/kg

Nc1nc(=S)[nH]c2c1cnn2-c1nc2c(ccc3ccccc32)s1 [Compound 5, 2-[6-Amino-3H-4-thiopyrimidino[4,5-c]pyrazol-2-yl]naphthalino[1,2-d]thiazole]
ED50 [1]: 0.089 mg/kg | % (Inhibition), in vivo anti-androgen activity [1]: 89.09% | IC50 [2]: 64.3 nM | LD50 ([3]; other: injected): 267 mg/kg

N=c1sc(=S)[nH]c2c1cnn2-c1nc2c(ccc3ccccc32)s1 [Compound 6, 2-[6-Imino-3H-4-thiothiazino[4,5-c]pyrazol-2-yl]naphthalino[1,2-d]thiazole]
ED50 [1]: 0.092 mg/kg | % (Inhibition), in vivo anti-androgen activity [1]: 88.76% | IC50 [2]: 72.4 nM | LD50 ([3]; other: injected): 258 mg/kg

CCO/C=N\c1c(C#N)cnn1-c1nc2c(ccc3ccccc32)s1 [Compound 8, 2-[3-Ethylimidoformat-4-cyanopyrazol-2-yl]naphthalino[1,2-d]thiazole]
ED50 [1]: 0.097 mg/kg | % (Inhibition), in vivo anti-androgen activity [1]: 85.43% | IC50 [2]: 78.5 nM | LD50 ([3]; other: injected): 236 mg/kg

N#Cc1cnn(-c2nc3c(ccc4ccccc43)s2)c1/N=C\NN [Compound 9, 2-[3-Imidoformic hydrazido-4-cyanopyrazol-2-yl]naphthalino[1,2-d]thiazole]
ED50 [1]: 0.095 mg/kg | % (Inhibition), in vivo anti-androgen activity [1]: 86.56% | IC50 [2]: 76.6 nM | LD50 ([3]; other: injected): 125 mg/kg

Cc1nc2c3cnn(-c4nc5c(ccc6ccccc65)s4)c3ncn2n1 [Compound 10, 2-[6-Methyl[1,2,4]triazolo[2,3-c]pyrimidino[6,5-c]pyrazol-2-yl]naphthalino[1,2-d]thiazole]
ED50 [1]: 0.071 mg/kg | % (Inhibition), in vivo anti-androgen activity [1]: 98.87% | IC50 [2]: 43.5 nM | LD50 ([3]; other: injected): 316 mg/kg

N=c1c2cnn(-c3nc4c(ccc5ccccc54)s3)c2ncn1NC(=O)c1ccccc1 [Compound 11]
ED50 [1]: 0.045 mg/kg | % (Inhibition), in vivo anti-androgen activity [1]: 90.01% | IC50 [2]: 61.6 nM | LD50 [3, 4]: 325 mg/kg

CCOC1SCC(=O)N1c1c(C#N)cnn1-c1nc2c(ccc3ccccc32)s1 (stereo not shown) [Compound 12, 2-[3-(2-Ethoxy-4-oxo-5-dihydro-1,3-thiazol-3-yl)-4-cyanopyrazol-2-yl]-naphthalino[1,2-d]thiazole]
ED50 [1]: 0.098 mg/kg | % (Inhibition), in vivo anti-androgen activity [1]: 84.65% | IC50 [2]: 80 nM | LD50 ([3]; other: injected): 234 mg/kg

CCOC1SCC2NC(=O)c3cnn(-c4nc5c(ccc6ccccc65)s4)c3N21 (stereo not shown) [Compound 13, 2-[3-Ethoxy-5-dihydro-6H-7-oxo-[1,3]thiazolo[3,4-b]pyrimidino[4,5-c]pyrazol-2-yl]naphthalino[1,2-d]thiazole]
ED50 [1]: 0.047 mg/kg | % (Inhibition), in vivo anti-androgen activity [1]: 97.56% | IC50 [2]: 49.6 nM | LD50 ([3]; other: injected): 443 mg/kg
